Earlier results in patent publication US20150065545A1, “Transdermal Delivery of Anastrozole for Systemic Effect” (Professional Compounding Centers of America, priority 2013, published 2015).

What was measured:
[1] = after the use of anastrozole for about 7 days
[2] = men with hormone disorders (elevated estradiol) prescribed anastrozole

CC(C)(C#N)c1cc(Cn2cncn2)cc(C(C)(C)C#N)c1 [anastrozole, 1,3-benzenediacetonitrile, a, a, a′, a′-tetramethyl-5-(1H-1,2,4-triazol-1-ylmethyl)]
increase of natural testosterone levels [1]: ≤ 60% | estradiol levels [2]: significant decrease
